Laboratory results taken from US9441024.

Conditions: disulfide bond; 38-membered ring
Work on S1C(disialo).N19C(GlcNAc)-SRIF28 yielded a ring closure, yield after HPLC of 59%. S1-5C(disialo)-SRIF28 gave a ring closure, yield after HPLC of 76%. For S1C(disialo(aminoethylamide))-SRIF28, the ring closure, yield after HPLC was 73%. Substance S1-2C(asialo)-SRIF28 has a ring closure, yield after HPLC of 55%. Work on S1C(disialo (hexadecylamide))-SRIF28 yielded a ring closure, yield after HPLC of 89%. For “C(disialo(aminoethylamide))/S1C(disialo)-SRIF28”, the ring closure, yield after HPLC was 58%. With S1-3C(asialo)-SRIF28 the ring closure, yield after HPLC was 52%. Work on S1C(disialo)-SRIF28 yielded a ring closure, yield after HPLC of 59%. In the case of S1-3C(disialo)-SRIF28, the ring closure, yield after HPLC is reported as 63%. With S1C(diGlcNAc)-SRIF28 the ring closure, yield after HPLC was 60%. Work on S1-2C(disialo)-SRIF28 yielded a ring closure, yield after HPLC of 58%. In the case of C(disialo)-C12 linker-SRIF14, the ring closure, yield after HPLC is reported as 61%. S1-4C(disialo)-SRIF28 showed a ring closure, yield after HPLC of 57%.
